# In patent US7714006B1, “Methods of modifying the bioavailability of metaxalone” (King Pharmaceuticals Research & Development, Inc., priority 2001, dated 2010):
# Experiment: Effects of age and gender on PK parameters, 2×400 mg data from studies 103 and 105, fed and fasted
# Settings: human, in vivo
# From the text: This analysis considers the effects of age and gender on three pharmacokinetic (PK) parameters of metaxalone under fed and fasted conditions. The three parameters are: • Cmax: the observed maximum plasma concentration (ng/mL); • AUC(last): the area under the curve (AUC) to the last quantifiable concentration, as measured by the trapezoidal rule (ng-hr/mL); • AUC(inf): the AUC extrapolated to infinity (ng-hr/mL).
# Because the distributions of these parameters tend to be skewed, and in accordance with generally accepted practice, all analyses are carried out after computing the natural logarithm (ln) of the values of the PK parameters from individual subjects.
# The report is based primarily on two similarly designed studies in which PK parameters were determined under fed and fasted conditions for the 2×400 mg dose of metaxalone: • Study AN151607-103 (hereafter referred to as the 103 study): a four-period, randomized crossover trial with treatment conditions 2×400 mg with food, 2×400 mg without food, 1×800 mg with food, 1×800 mg without food; and • Study ELN151607-105 (hereafter referred to as the 105 study): a two-period, randomized crossover trial with treatment conditions 2×400 mg with food and 2×400 mg without food.
# Using the 2×400 mg data from studies 103 and 105, Section 2.2 presents the results of analyses of the effects of age on the fed values of Cmax, AUC(last), and AUC(inf). Section 2.3 similarly reports the results of analyses of fasted values of these parameters using the 2×400 mg data from these two studies. Section 2.4 repeats the analyses of Sections 2.2 and 2.3 using the data from the 1×800 mg treatment of study 103, in combination with the 2×400 mg data from study 105. Finally, Sections 2.5 and 2.6 report the results of similar analyses using the data from studies 101 and 106, respectively.
# The primary results are based on the results of linear regression models investigating the effects of age on each PK parameter. Descriptive analyses reporting parametric (Pearson) and nonparametric (Spearman) correlation coefficients between age and each PK parameter are also provided. The Pearson correlation coefficient measures the extent of the linear association between two variables and is most appropriate when the data are approximately bivariate normally distributed with no outliers. The Spearman correlation coefficient is based on the ranks of the variables. It is less sensitive to outliers, but is often also a less sensitive measure of the strength of association.
# In study 103, 59 subjects were administered the 2×400 mg dose under fed conditions. The mean age was 26.1 years, with a range from 18 to 50 years. (A total of 64 subjects began the study, of which the average age was 25.6 years. Five subjects were not included in the pharmacokinetic analysis.) In study 105, 44 subjects were administered the 2×400 mg dose under fed conditions. The mean age in study 105 was 56.0 years; with a range from 18 to 81 years.
# First, in the combined group of 59+44=103 subjects, Pearson and Spearman correlation coefficients between age and each of the three PK parameters were computed. The correlation coefficients and two-sided p-values from the test of the null hypothesis of no association are shown below in TABLE IIIa:
# Linear regression models using the natural logarithm of each of the three PK parameters as the dependent variable and age as the independent variable were fitted in order to estimate the magnitude of the associations with age.
# In study 103, the same 59 subjects were administered the 2×400 mg dose under fasted conditions. Similarly, the 44 subjects from study 105 were administered the 2×400 mg dose under fasted conditions.
# First, in the combined group of n=103 subjects, Pearson and Spearman correlations between age and each of the three PK parameters were computed. The correlation coefficients and two-sided p-values from the test of the null hypothesis of no association are shown below in TABLE IVa: […]
smiles,measurement,setting,value
"Cc1cc(C)cc(OCC2CNC(=O)O2)c1 (stereo not shown) [metaxalone, 5-[(3,5-dimethylphenoxy)methyl]-2 oxazolidinone]",Percentage increase in AUC(inf) from age 20 to age 70,both,74%
same,"Percentage increase in AUC(inf), 70-year-old vs 20-year-old",both,95%
same,Percentage increase in AUC(last) from age 20 to age 70,both,78%
same,"Percentage increase in AUC(last), 70-year-old vs 20-year-old",both,98%
same,Percentage increase in Cmax from age 20 to age 70,both,84%
same,"Percentage increase in Cmax, 70-year-old vs 20-year-old",both,103%
same,"Pearson correlation coefficients age vs PK parameters, range in magnitude",female,0.49-0.60
